Laboratory results: the NIST ThermoML archive (doi:10.1016/j.tca.2013.02.022)
± gives the expanded uncertainty stated by the source.

Experiment: cn = amount concentration of the nth substance listed, in mol/dm3
Details: 298.15 K, 101 kPa, Liquid, Alternating current cell with electrodes

CCn1cc[n+](C)c1.[Br-] [1-ethyl-3-methylimidazolium bromide] + CC(=O)N(C)C
Details	molar conductivity [S·m2/mol]
c1 = 0.000995	0.00429 ± 0.00011
c1 = 0.001858	0.004 ± 0.00011
c1 = 0.002527	0.00377 ± 9.4e-05
c1 = 0.003129	0.00364 ± 8.3e-05
c1 = 0.003697	0.00354 ± 7.8e-05
c1 = 0.004106	0.00348 ± 8.4e-05
c1 = 0.004509	0.00335 ± 8.4e-05
c1 = 0.005187	0.0032 ± 7.7e-05
c1 = 0.005736	0.00309 ± 7.3e-05
c1 = 0.005973	0.00305 ± 6.7e-05
c1 = 0.006388	0.003 ± 6.9e-05
c1 = 0.0073	0.00283 ± 6.8e-05
c1 = 0.007821	0.00273 ± 6.1e-05
c1 = 0.008279	0.0027 ± 6.4e-05
c1 = 0.008995	0.00254 ± 6.8e-05

CCn1cc[n+](C)c1.[Br-] [1-ethyl-3-methylimidazolium bromide] + C[S+](C)[O-]
Details	molar conductivity [S·m2/mol]
c1 = 0.002105	0.00246 ± 5.5e-05
c1 = 0.003858	0.00225 ± 5e-05
c1 = 0.005342	0.00209 ± 4.6e-05
c1 = 0.006614	0.00198 ± 4.3e-05
c1 = 0.007717	0.0019 ± 4.1e-05
c1 = 0.008681	0.00182 ± 3.9e-05
c1 = 0.009532	0.00177 ± 3.8e-05
c1 = 0.01097	0.00166 ± 3.6e-05
c1 = 0.01213	0.00158 ± 3.4e-05
c1 = 0.0135	0.0015 ± 3.2e-05
c1 = 0.01458	0.00144 ± 3.1e-05
c1 = 0.01614	0.00136 ± 2.9e-05
c1 = 0.01721	0.0013 ± 2.8e-05
c1 = 0.01812	0.00126 ± 2.7e-05
c1 = 0.01902	0.00122 ± 2.6e-05

CCn1cc[n+](C)c1.[Br-] [1-ethyl-3-methylimidazolium bromide] + CN(C)C=O
Details	molar conductivity [S·m2/mol]
c1 = 0.001828	0.00732 ± 0.00016
c1 = 0.002531	0.0071 ± 0.00016
c1 = 0.003133	0.0069 ± 0.00015
c1 = 0.003655	0.00675 ± 0.00014
c1 = 0.004225	0.00667 ± 0.00014
c1 = 0.004874	0.00652 ± 0.00014
c1 = 0.005483	0.00643 ± 0.00013
c1 = 0.005981	0.0063 ± 0.00013
c1 = 0.006397	0.00622 ± 0.00013
c1 = 0.006905	0.00616 ± 0.00013
c1 = 0.007429	0.0061 ± 0.00013
c1 = 0.007833	0.00604 ± 0.00013
c1 = 0.008291	0.00593 ± 0.00013
c1 = 0.008681	0.00587 ± 0.00012
c1 = 0.009008	0.00584 ± 0.00012

CCn1cc[n+](C)c1.[Br-] [1-ethyl-3-methylimidazolium bromide] + CO
Details	molar conductivity [S·m2/mol]
c1 = 0.001828	0.00814 ± 0.00017
c1 = 0.002264	0.00804 ± 0.00017
c1 = 0.002683	0.00795 ± 0.00016
c1 = 0.003262	0.00784 ± 0.00016
c1 = 0.003528	0.00779 ± 0.00016
c1 = 0.004007	0.00771 ± 0.00016
c1 = 0.004303	0.00765 ± 0.00016
c1 = 0.004622	0.0076 ± 0.00015
c1 = 0.004858	0.00757 ± 0.00015
c1 = 0.005093	0.00753 ± 0.00015
c1 = 0.005282	0.0075 ± 0.00015
c1 = 0.005565	0.00746 ± 0.00015
c1 = 0.005822	0.00743 ± 0.00015
c1 = 0.006122	0.00739 ± 0.00015
c1 = 0.006338	0.00736 ± 0.00015

CCn1cc[n+](C)c1.[Br-] [1-ethyl-3-methylimidazolium bromide] + CC#N
Details	molar conductivity [S·m2/mol]
c1 = 0.000941	0.0155 ± 0.00032
c1 = 0.001725	0.0152 ± 0.00031
c1 = 0.002388	0.015 ± 0.00031
c1 = 0.002957	0.0149 ± 0.0003
c1 = 0.003994	0.0146 ± 0.0003
c1 = 0.0046	0.0145 ± 0.00029
c1 = 0.005175	0.0144 ± 0.00029
c1 = 0.005645	0.0143 ± 0.00029
c1 = 0.006038	0.0143 ± 0.00029
c1 = 0.006369	0.0142 ± 0.00029
c1 = 0.006654	0.0142 ± 0.00028
c1 = 0.007011	0.0141 ± 0.00028
c1 = 0.007656	0.014 ± 0.00028
c1 = 0.007998	0.0139 ± 0.00028
c1 = 0.008433	0.0139 ± 0.00028
